Common to all, as to format: cell-based
The target in one experiment is T1, CaV2.2 (Homo sapiens, UniProt Q00975).
T1 construct: expressed in transfected cells; host or cells: unnamed doxycycline-inducible cell line
Briefly: High-throughput CaV2.2/Kir2.3 FLIPR fluorescent assay. As to conditions: Fluo-4 FLIPR, closed or inactivated state not stated, read-out: FLIPR data CaV2.2. Summed up:
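Doxycycline-induced cells moved to 29 °C on assay day and were loaded with 4.4 μM Fluo-4. They were held in 2 mM KCl (closed state) or 12.5 mM KCl (inactivated state) buffer, pH 7.4, then depolarized with 130 mM KCl. Fluorescence was read 3 min on FLIPR, and IC50 was obtained from logistic fits.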

Another experiment has as its target T2, CaV3.1 (Homo sapiens, UniProt O43497).
T2 construct: expressed in transfected cells; host or cells: unnamed doxycycline-inducible cell line
Kind of experiment: High-throughput CaV3.1 T-type FLIPR fluorescent assay. As to conditions: Fluo-4 FLIPR. Summed up:
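Doxycycline-induced CaV3.1 cells were loaded with Fluo-4 at 29 °C and pre-incubated with compound for 20 min at 29 °C in low-Ca2+ buffer (0.001 mM CaCl2, pH 7.2). Calcium entry was triggered by buffer containing 6 mM CaCl2, and Fluo-4 fluorescence was recorded on FLIPR for 3 min. IC50 came from logistic fits.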

A further experiment deals with T3, CaV3.2 (Homo sapiens, UniProt O95180).
T3 construct: expressed in transfected cells; host or cells: unnamed doxycycline-inducible cell line
Briefly: High-throughput CaV3.2/Kir2.3 T-type FLIPR fluorescent assay. As to conditions: Fluo-4 FLIPR, closed or inactivated state not stated. The method, boiled down:
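Doxycycline-induced cells loaded with Fluo-4, preincubated 20 min at 29°C with compound in 2 mM KCl (closed-state) or 7.6 mM KCl (inactivated-state) buffer, pH 7.4. Calcium entry triggered by 12 mM or 14.5 mM KCl respectively; fluorescence read 3 min by FLIPR, IC50 from logistic fit.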

SMILES strings stand for the structures. Where two headings read alike, the source gives them in different places.

T2 sequence (O43497 whole entry): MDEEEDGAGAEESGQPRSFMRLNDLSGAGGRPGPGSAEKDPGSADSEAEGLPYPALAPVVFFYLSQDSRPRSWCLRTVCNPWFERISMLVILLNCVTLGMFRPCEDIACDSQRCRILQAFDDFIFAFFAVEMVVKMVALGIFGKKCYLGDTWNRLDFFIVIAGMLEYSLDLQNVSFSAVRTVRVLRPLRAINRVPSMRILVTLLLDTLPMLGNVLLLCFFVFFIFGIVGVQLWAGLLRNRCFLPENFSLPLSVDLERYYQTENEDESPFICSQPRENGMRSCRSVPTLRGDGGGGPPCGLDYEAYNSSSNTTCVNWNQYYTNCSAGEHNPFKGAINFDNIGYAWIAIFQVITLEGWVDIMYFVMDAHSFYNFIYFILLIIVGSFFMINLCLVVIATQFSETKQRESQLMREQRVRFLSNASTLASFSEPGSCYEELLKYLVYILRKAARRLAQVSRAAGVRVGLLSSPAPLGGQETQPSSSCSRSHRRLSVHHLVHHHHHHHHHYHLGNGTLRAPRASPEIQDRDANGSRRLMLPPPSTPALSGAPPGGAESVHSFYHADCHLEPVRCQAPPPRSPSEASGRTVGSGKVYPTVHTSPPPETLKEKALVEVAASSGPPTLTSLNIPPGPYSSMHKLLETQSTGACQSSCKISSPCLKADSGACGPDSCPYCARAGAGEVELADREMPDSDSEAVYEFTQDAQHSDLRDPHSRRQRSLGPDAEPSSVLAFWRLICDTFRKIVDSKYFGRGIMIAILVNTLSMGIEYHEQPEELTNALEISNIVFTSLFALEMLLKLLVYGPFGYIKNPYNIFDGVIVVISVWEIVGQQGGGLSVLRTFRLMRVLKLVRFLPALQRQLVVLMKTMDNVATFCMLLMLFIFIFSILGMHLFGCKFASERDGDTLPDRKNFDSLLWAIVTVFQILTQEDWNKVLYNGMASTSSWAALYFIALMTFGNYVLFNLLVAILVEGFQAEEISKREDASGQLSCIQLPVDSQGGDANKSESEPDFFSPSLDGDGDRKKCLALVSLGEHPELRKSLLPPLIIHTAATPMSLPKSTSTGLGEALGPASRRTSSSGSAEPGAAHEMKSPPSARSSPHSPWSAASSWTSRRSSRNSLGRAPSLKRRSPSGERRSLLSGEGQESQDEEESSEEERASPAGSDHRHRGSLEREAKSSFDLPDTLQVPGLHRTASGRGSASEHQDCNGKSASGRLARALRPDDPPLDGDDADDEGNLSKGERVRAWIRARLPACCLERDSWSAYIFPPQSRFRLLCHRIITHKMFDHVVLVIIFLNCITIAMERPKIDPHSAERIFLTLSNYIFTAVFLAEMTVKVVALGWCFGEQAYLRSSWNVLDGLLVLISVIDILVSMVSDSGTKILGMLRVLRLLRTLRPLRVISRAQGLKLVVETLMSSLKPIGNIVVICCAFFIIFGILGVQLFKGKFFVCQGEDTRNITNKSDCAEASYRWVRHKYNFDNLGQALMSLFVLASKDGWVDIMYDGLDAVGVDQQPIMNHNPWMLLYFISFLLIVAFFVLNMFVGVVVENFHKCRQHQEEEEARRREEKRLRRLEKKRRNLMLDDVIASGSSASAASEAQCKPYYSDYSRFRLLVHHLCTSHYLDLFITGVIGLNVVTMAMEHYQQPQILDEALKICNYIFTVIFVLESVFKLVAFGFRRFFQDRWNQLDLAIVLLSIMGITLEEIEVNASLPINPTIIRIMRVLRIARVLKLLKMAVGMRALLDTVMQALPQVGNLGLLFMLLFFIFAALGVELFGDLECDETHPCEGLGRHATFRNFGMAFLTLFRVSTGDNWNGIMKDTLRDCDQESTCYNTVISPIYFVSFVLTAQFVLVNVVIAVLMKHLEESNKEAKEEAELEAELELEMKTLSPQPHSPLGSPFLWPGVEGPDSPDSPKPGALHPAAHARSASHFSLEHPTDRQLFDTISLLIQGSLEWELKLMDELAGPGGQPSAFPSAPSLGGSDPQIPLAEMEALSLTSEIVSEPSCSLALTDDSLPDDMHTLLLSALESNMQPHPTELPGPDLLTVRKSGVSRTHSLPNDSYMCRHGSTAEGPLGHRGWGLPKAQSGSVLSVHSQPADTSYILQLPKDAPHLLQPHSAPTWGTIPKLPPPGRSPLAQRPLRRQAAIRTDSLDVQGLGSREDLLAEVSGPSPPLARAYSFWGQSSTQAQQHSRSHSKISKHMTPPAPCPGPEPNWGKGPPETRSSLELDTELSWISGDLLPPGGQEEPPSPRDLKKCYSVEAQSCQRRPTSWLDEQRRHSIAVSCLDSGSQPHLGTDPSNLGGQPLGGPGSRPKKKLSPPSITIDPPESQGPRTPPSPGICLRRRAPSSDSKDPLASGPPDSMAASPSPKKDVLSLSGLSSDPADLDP
T3 sequence (O95180 whole entry): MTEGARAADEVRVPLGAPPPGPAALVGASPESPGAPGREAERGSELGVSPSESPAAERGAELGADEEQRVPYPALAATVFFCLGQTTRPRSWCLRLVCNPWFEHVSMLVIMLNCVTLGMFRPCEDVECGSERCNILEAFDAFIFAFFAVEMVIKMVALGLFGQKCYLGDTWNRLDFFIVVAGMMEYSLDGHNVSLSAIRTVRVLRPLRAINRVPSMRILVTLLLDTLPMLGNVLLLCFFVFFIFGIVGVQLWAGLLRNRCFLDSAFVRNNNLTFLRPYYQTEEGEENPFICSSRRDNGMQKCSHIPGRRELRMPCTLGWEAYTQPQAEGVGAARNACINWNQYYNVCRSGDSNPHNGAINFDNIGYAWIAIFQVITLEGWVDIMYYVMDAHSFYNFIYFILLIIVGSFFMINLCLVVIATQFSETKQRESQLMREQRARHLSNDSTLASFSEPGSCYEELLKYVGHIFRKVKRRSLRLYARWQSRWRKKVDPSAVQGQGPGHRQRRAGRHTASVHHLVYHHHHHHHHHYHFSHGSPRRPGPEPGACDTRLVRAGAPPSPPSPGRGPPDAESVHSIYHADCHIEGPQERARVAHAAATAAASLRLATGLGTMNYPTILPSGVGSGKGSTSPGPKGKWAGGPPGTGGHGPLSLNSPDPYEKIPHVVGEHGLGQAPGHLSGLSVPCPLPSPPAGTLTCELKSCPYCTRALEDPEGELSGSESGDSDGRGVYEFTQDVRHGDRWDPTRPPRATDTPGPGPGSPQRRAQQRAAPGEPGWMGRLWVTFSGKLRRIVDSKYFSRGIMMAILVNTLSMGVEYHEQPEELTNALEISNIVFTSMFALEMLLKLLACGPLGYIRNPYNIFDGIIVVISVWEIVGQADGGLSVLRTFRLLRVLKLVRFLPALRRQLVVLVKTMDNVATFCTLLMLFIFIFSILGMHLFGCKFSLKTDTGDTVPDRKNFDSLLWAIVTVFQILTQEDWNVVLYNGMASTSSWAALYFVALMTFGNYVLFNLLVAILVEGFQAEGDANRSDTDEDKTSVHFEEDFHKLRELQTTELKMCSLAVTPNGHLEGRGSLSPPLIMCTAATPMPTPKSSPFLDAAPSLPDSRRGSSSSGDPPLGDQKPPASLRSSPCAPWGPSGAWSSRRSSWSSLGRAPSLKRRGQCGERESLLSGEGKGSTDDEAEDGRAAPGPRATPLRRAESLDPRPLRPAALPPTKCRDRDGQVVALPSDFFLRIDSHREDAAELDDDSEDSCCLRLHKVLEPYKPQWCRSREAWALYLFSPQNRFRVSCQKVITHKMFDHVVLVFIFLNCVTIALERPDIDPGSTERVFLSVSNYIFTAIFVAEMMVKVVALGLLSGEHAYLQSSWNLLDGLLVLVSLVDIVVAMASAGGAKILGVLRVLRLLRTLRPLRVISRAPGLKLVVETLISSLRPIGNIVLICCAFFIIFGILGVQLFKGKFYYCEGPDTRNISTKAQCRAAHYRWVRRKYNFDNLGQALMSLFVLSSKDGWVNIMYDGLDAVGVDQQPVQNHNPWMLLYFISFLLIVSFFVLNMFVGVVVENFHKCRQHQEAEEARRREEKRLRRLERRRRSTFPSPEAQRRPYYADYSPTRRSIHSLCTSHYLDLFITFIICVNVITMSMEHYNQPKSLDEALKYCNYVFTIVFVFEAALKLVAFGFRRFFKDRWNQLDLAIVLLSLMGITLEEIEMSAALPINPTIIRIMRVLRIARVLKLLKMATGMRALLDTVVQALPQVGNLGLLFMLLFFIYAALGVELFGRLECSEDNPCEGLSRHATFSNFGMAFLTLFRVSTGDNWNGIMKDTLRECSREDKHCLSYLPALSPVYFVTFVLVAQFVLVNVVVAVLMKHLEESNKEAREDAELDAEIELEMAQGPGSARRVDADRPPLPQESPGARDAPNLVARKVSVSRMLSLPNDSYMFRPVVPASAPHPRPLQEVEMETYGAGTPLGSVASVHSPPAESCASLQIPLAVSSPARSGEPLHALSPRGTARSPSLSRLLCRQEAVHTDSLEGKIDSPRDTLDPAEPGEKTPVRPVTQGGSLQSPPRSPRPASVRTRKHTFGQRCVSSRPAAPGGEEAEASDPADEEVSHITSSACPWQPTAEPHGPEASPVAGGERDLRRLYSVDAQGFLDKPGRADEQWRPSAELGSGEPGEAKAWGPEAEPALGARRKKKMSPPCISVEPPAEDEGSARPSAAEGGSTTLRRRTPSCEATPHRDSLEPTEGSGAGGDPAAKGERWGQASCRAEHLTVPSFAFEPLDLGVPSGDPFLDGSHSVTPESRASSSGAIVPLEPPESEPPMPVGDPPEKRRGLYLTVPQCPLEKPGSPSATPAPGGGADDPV

For `O=C(NCc1ccc(S(=O)(=O)c2cccc(C(F)(F)F)c2)cn1)c1cn2cc(C(F)(F)F)ccc2n1` [Compound 103, 6-(trifluoromethyl)-N-((5-((3-(trifluoromethyl)phenyl)sulfonyl)pyridin-2-yl)methyl)imidazo[1,2-a]pyridine-2-carboxamide], the results for the IC50 on CaV2.2 (Table 4), against CaV3.1 (Table 4) and on CaV3.2 (Table 4) were 830 nM, 2060 nM and 1250 nM, respectively.

For the compound `CS(=O)(=O)c1nc(C(F)(F)F)ccc1C(=O)NCc1ccc(S(=O)(=O)c2cccc(C(F)(F)F)c2)cc1` [Compound 6, 2-(methylsulfonyl)-6-(trifluoromethyl)-N-(4-((3-(trifluoromethyl)phenyl)sulfonyl)benzyl)nicotinamide], the IC50 on CaV2.2 (Table 4) was 710 nM; at CaV3.1 (Table 4), 2340 nM; against CaV3.2 (Table 4), 1510 nM.

With `O=C(NCc1cccc(S(=O)(=O)c2cccc(C(F)(F)F)c2)c1)c1ccc(C(F)(F)F)nc1` [Compound 19, 6-(trifluoromethyl)-N-(3-((3-(trifluoromethyl)phenyl)sulfonyl)benzyl)nicotinamide], the IC50 on CaV2.2 (Table 4) was found to be 490 nM; against CaV3.1 (Table 4), 2100 nM; against CaV3.2 (Table 4), 970 nM.

For the compound `CC(C)(C(=O)NCC(O)c1ccc(C(F)(F)F)cc1)S(=O)(=O)c1cccc(C(F)(F)F)c1` (stereo not drawn) [Compound 140, N-(2-hydroxy-2-(4-(trifluoromethyl)phenyl)ethyl)-2-methyl-2-((3-(trifluoromethyl)phenyl)sulfonyl)propanamide], the figures for the IC50 on CaV2.2 (Table 5), against CaV3.1 (Table 5) and at CaV3.2 (Table 5) were 410 nM, 8220 nM and 5090 nM, respectively.

Consider `CC(C)(C(=O)NC1CCN(c2ccc(C(F)(F)F)cc2)CC1)S(=O)(=O)c1cccc(C(F)(F)F)c1` [Compound 137, 2-methyl-N-(1-(4-(trifluoromethyl)phenyl)piperidin-4-yl)-2-((3-(trifluoromethyl)phenyl)sulfonyl)propanamide], for which the IC50 at CaV2.2 (Table 5) worked out at 1610 nM; against CaV3.1 (Table 5) it was 4530 nM; at CaV3.2 (Table 5), 3000 nM.

In the case of `CS(=O)(=O)c1nc(C(F)(F)F)ccc1C(=O)NCc1cccc(S(=O)(=O)c2cccc(C(F)(F)F)c2)c1` [Compound 21, 2-(methylsulfonyl)-6-(trifluoromethyl)-N-(3-((3-(trifluoromethyl)phenyl)sulfonyl)benzyl)nicotinamide], the IC50 at CaV2.2 (Table 4) was 760 nM; against CaV3.1 (Table 4), 9070 nM; against CaV3.2 (Table 4), 2680 nM.

`O=C(NCc1ccc(S(=O)(=O)c2cccc(C(F)(F)F)c2)cc1)c1cc(F)cc(Cl)c1` [Compound 2, 3-chloro-5-fluoro-N-(4-((3-(trifluoromethyl)phenyl)sulfonyl)benzyl)benzamide]: the IC50 stood at 950 nM on CaV2.2 (Table 4), 1500 nM against CaV3.1 (Table 4) and 850 nM against CaV3.2 (Table 4).

`O=C(NCc1ccccc1S(=O)(=O)c1cccc(C(F)(F)F)c1)c1ccc(Cl)c(F)c1` [Compound 36, 4-chloro-3-fluoro-N-(2-((3-(trifluoromethyl)phenyl)sulfonyl)benzyl)benzamide]: the values for the IC50 at CaV2.2 (Table 4), at CaV3.1 (Table 4) and on CaV3.2 (Table 4) were 830 nM, 410 nM and 770 nM, respectively.

In the case of `CS(=O)(=O)c1cc(C(F)(F)F)ccc1C(=O)NCc1ccc(S(=O)(=O)c2cccc(C(F)(F)F)c2)cn1` [Compound 99, 2-(methylsulfonyl)-4-(trifluoromethyl)-N-((5-((3-(trifluoromethyl)phenyl)sulfonyl)pyridin-2-yl)methyl)benzamide], the IC50 was 910 nM on CaV2.2 (Table 4), 1270 nM against CaV3.1 (Table 4) and 1320 nM at CaV3.2 (Table 4).

`O=C1c2ccc(C(F)(F)F)nc2CN1Cc1cccc(S(=O)(=O)c2cccc(C(F)(F)F)c2)c1` [Compound 57, 2-(trifluoromethyl)-6-(3-((3-(trifluoromethyl)phenyl)sulfonyl)benzyl)-6,7-dihydro-5H-pyrrolo[3,4-b]pyridin-5-one]: the IC50 at CaV2.2 (Table 4) is 260 nM; against CaV3.1 (Table 4), 6130 nM; on CaV3.2 (Table 4), 800 nM.

In the case of `CS(=O)(=O)c1cc(C(F)(F)F)cnc1C(=O)NCc1ccccc1S(=O)(=O)c1cccc(C(F)(F)F)c1` [Compound 43, 3-(methylsulfonyl)-5-(trifluoromethyl)-N-(2-((3-(trifluoromethyl)phenyl)sulfonyl)benzyl)picolinamide], the IC50 on CaV2.2 (Table 4) was 670 nM; on CaV3.1 (Table 4), 1420 nM; at CaV3.2 (Table 4), 3380 nM.

For `O=C(NCc1ccc(S(=O)(=O)c2cccc(C(F)(F)F)c2)cc1)c1cn2cc(C(F)(F)F)ccc2n1` [Compound 13, 6-(trifluoromethyl)-N-(4-((3-(trifluoromethyl)phenyl)sulfonyl)benzyl)imidazo[1,2-a]pyridine-2-carboxamide], the IC50 on CaV2.2 (Table 4) is 300 nM; against CaV3.1 (Table 4), 2020 nM; at CaV3.2 (Table 4), 740 nM.

Turning to `CS(=O)(=O)c1cc(C(F)(F)F)ccc1C(=O)NCc1cccc(S(=O)(=O)c2cccc(C(F)(F)F)c2)c1` [Compound 28, 2-(methylsulfonyl)-4-(trifluoromethyl)-N-(3-((3-(trifluoromethyl)phenyl)sulfonyl)benzyl)benzamide], the values for the IC50 at CaV2.2 (Table 4), at CaV3.1 (Table 4) and against CaV3.2 (Table 4) were 190 nM, 1510 nM and 730 nM, respectively.

With `O=C(NCc1ccc(S(=O)(=O)c2cccc(C(F)(F)F)c2)cc1)[C@@H]1C[C@@H](C2CCCCC2)CN1` [Compound 72, (2S,4S)-4-cyclohexyl-N-(4-((3-(trifluoromethyl)phenyl)sulfonyl)benzyl)pyrrolidine-2-carboxamide], the IC50 turned out to be 760 nM at CaV2.2 (Table 4), 8900 nM against CaV3.1 (Table 4) and 2320 nM at CaV3.2 (Table 4).

Source of the values: patent publication US20140113898A1, “BISARYLSULFONE AND DIALKYLARYLSULFONE COMPOUNDS AS CALCIUM CHANNEL BLOCKERS” (Zalicus Pharmaceuticals Ltd., priority 2010, published 2014).
